Active and inactive are the calls of the source.

The results in this text go back to ChEMBL document CHEMBL1201862, “PubChem BioAssay data set” (2004).

A short description of test [1]: cells. Type of test: functional, cell-based.
The nature of test [2]: cells. Type of test: functional, cell-based. The source holds these as a separate data set.
Test [3] deals with Beta-galactosidase (Escherichia coli, UniProt Q8VNN2). Nature of the test: Dose response counterscreen for EBI2 assay utilizing the enzyme, b-galactosidase. It is filed as functional. Background: The purpose of a counterscreen is to sort out artefacts and off-target activity.
For test [4], the system named is H4. Put plainly: Luminescence Cell-Based Dose Response HTS to Identify Activators of 5'UTR Stem-Loop Driven Prion Protein mRNA Translation in H4 Neuroglioblastoma Cells. [Related pubchem assays: 1829 (Project Summary), 1814 (Primary HTS)]. It is filed as functional. The conditions noted are these: Homo sapiens.
A short description of test [5]: Counterscreen for activators of the function of SWI/SNF related, matrix associated, actin dependent regulator of chromatin, subfamily a, member 2 (SMARCA2, BRM): Luminescence-based cell-based high throughput dose response assay to identify non-selective compounds using the VP16 reporter assay. It is filed as functional.
The target of test [6] is T1, DNA repair and recombination protein RAD54-like (Homo sapiens, UniProt Q92698).
T1 sequence (Q92698 whole entry): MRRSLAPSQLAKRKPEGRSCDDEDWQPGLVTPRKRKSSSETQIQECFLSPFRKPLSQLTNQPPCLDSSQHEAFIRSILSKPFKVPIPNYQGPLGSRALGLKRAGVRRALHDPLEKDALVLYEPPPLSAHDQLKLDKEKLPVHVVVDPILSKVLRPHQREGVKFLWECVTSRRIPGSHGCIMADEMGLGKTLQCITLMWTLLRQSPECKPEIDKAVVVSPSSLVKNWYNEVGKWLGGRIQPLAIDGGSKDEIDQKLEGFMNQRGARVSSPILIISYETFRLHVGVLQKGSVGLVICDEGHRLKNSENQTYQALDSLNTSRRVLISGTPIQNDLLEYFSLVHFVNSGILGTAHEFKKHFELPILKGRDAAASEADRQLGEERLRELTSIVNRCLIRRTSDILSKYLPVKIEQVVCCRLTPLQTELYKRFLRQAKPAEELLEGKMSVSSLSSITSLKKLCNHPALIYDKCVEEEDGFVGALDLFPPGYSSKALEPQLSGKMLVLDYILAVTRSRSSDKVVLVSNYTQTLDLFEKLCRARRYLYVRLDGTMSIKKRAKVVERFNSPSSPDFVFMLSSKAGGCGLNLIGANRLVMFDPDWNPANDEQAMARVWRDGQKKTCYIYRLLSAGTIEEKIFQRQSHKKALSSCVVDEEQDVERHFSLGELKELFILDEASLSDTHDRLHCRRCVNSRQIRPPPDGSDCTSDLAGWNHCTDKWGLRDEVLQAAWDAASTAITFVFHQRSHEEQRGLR
Put plainly: RAD54 Holliday junction migration blockers – biochemical, fluorescence, cherry-picked samples, dose series, confirmation (AID 651657). It is filed as functional.

Test [7] is described as follows: acridine orange displacement from DNA – biochemical, fluorescence polarization, cherry-pick, artefact control for RAD54 inhibitor project, dose response (AID 651673). It is filed as functional.
Test [8] has as its target T2, DNA repair protein RAD52 homolog (Homo sapiens, UniProt P43351).
T2 sequence (P43351 whole entry): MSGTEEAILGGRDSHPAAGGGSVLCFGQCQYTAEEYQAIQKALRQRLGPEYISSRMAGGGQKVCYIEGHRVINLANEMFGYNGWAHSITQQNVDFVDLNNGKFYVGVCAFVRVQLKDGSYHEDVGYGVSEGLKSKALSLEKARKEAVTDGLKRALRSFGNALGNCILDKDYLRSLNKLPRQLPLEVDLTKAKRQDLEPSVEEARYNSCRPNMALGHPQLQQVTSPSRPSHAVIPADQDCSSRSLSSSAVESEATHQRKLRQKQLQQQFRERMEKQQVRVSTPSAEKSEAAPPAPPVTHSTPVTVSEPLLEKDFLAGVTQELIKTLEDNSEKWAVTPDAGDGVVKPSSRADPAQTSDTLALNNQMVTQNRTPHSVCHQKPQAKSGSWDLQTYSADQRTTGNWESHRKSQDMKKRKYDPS
It is filed as functional, biochemical.

Test [9] in a line: Luminescence Cell-Based Dose Response HTS to Identify Activators of Luciferase Translation or Activity in H4 […] Cells. [Related pubchem assays: 1829 (Project Summary), 1814 (Primary HTS)]. Type of test: functional.
Test [10] deals with SWI/SNF-related matrix-associated actin-dependent regulator of chromatin subfamily A member 2 (Homo sapiens, UniProt P51531). Put plainly: Luminescence-based cell-based high throughput dose response assay to identify activators of the function of SWI/SNF related, matrix associated, actin dependent regulator of chromatin, subfamily a, member 2 (SMARCA2, BRM). Type of test: functional.

Test [11] concerns BJ. Nature of the test: BJ-TERT-LT-ST fibroblast viability loss – cell-based, RAS-independent, luminescence, dose response (AID 1935).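 Further: BJ fibroblasts immortalized with TERT plus LT and ST oncogenes.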 Type of test: functional. The conditions noted are these: Homo sapiens.
The subject of test [12] is BJ. Put plainly: cells. Type of test: functional, cell-based. The settings on record: Homo sapiens.
Test [13] has as its system BJ. Put plainly: growth inhibition of engineered Ras-driven BJ cells – cell-based, alamar blue fluorescence, cherrypicked samples, dose response (AID 2631).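 Further: confirmatory dose-response assay in RAS-dependent BJ fibroblasts engineered with TERT, LT and ST, with cytotoxicity read by fluorescence.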 The conditions noted are these: Homo sapiens. Type of test: functional. (Resazurin is reduced to fluorescent resorufin, in cell work by metabolically active cells.)
Test [14] can be described thus: blockers of HIV-1 envelope-mediated cell-cell fusion – cherry-pick, dose response (AID 652057). Type of test: functional, cell-based.
Test [15] in a line: HIV-1 AD8 envelope cell-cell fusion blockers – cherry-pick, dose response (AID 652062).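 Further: luciferase signal from cell-cell fusion driven by HIV-1 clade B AD8 Env; potency is for inhibitors of fusion seen as a drop in luminescence.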 Type of test: functional, cell-based.
Test [16] relates to BJ. Put plainly: BJ-TERT fibroblast viability loss – cell-based, RAS-independent, luminescence, dose response (AID 1933). Type of test: functional. The conditions noted are these: Homo sapiens.
The nature of test [17]: DRD fibroblast viability loss – cell-based, non-viral oncogenic, luminescence, dose response (AID 1934). Type of test: functional. The conditions noted are these: Homo sapiens.
Test [18] can be described thus: off-target signal loss in HeLa-CEM21 co-culture – HeLa F-luc CTL cells, cherry-picked, counter-screen for HIV-1 Env fusion inhibitor project, dose response (AID 652040).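 Further: potency for signal decrease marking cytotoxic or nonspecific inhibition.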 Type of test: functional, cell-based.
The nature of test [19]: viability loss in CEM21 cells – cell-based, CellTiter-Glo luminescence, cherry-picked, cytotoxicity control for viral fusion inhibitor project, dose response (AID 652042).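 Further: potency for signal decrease meaning cytotoxicity.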 Type of test: functional. Background: Cellular ATP, detected with luciferase, serves as a proxy for viable cell number.

Beta-galactosidase, sequence (Q8VNN2 whole entry): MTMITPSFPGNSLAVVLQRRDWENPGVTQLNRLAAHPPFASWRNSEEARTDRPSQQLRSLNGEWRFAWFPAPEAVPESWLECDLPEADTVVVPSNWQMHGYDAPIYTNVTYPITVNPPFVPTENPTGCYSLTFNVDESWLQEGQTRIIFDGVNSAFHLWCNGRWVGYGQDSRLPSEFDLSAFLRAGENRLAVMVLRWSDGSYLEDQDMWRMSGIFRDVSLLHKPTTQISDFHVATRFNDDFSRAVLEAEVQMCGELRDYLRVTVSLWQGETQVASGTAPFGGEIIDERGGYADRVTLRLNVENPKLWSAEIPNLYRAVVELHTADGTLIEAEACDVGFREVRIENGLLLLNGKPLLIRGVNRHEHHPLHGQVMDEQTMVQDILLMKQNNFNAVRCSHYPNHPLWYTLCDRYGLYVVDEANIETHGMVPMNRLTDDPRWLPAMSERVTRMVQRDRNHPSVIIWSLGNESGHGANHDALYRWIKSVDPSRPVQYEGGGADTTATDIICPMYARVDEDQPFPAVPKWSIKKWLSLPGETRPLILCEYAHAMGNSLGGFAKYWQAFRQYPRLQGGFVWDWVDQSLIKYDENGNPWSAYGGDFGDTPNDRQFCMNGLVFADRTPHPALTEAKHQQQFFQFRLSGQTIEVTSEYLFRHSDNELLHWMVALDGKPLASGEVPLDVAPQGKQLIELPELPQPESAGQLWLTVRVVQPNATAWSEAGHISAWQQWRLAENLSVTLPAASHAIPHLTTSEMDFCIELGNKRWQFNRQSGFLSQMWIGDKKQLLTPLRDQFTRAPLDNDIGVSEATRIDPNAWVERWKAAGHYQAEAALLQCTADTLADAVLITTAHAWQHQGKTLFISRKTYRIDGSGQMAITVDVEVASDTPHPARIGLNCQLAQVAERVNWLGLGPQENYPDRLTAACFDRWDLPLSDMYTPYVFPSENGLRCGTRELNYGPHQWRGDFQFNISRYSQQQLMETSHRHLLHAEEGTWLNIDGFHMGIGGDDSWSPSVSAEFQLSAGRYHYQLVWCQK
SWI/SNF-related matrix-associated actin-dependent regulator of chromatin subfamily A member 2, sequence (P51531 whole entry): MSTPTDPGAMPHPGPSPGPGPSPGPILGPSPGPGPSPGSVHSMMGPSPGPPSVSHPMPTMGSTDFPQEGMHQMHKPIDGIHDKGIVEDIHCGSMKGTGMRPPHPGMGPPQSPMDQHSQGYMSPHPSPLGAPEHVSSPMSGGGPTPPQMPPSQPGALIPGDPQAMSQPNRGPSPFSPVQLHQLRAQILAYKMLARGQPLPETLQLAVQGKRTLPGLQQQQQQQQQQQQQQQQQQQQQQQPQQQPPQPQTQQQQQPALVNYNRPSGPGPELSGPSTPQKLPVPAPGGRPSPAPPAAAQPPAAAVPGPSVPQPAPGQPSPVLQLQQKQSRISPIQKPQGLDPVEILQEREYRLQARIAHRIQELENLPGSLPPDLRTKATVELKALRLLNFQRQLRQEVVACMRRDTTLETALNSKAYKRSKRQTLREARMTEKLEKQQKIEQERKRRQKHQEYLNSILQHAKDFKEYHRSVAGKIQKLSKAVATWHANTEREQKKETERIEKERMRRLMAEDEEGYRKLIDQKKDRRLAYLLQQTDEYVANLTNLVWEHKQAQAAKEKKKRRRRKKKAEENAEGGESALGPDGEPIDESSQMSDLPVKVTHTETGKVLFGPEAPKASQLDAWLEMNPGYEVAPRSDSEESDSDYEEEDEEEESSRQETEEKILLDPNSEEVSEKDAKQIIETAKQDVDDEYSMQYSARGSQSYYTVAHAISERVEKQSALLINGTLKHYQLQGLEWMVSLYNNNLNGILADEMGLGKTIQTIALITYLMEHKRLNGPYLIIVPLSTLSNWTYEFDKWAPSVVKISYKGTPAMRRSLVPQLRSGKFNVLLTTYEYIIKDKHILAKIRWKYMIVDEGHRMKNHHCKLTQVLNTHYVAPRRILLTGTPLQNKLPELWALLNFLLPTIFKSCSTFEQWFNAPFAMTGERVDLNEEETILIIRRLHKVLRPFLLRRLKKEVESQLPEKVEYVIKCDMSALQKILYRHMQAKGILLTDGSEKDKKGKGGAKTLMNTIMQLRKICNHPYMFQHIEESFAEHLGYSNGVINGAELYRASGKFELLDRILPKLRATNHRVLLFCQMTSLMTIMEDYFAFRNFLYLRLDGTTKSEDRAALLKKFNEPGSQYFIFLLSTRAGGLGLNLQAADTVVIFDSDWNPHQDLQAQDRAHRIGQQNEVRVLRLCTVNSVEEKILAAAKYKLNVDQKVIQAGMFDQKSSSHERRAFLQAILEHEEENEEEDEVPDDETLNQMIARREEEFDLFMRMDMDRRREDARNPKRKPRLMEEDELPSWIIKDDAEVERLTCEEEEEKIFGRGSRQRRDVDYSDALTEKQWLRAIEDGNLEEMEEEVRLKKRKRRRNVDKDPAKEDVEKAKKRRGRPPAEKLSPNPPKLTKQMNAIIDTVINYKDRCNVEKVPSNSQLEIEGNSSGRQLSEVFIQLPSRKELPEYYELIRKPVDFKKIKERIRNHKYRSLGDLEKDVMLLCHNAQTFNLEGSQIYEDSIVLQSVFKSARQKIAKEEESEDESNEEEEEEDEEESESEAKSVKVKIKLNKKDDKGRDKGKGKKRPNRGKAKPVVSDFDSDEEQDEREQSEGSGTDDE

Broadly, the IC50 is the midpoint of a concentration-inhibition curve. The term EC50 denotes the concentration at which the effect is half-maximal. For the molecule `Oc1cc(C=NNc2ccccc2)nc(O)n1`, in [1], the IC50 was > 29.9 µM (inactive). Besides, the EC50 in [2] was > 29.9 µM (inactive).
As for `CN(Cc1ccc(F)cc1)C(=O)COc1ccc2ccccc2c1`, the IC50 in test [3] is > 80 µM (inactive).
Usually AC50 stands for the midpoint of the concentration-response curve, whichever way the signal moves. With `CCN(CC)CCCNc1nc2ccccc2c2nc(-c3ccncc3)nn12`, the EC50 is > 120 µM (not active) in [4], > 91.2 µM (inactive) in [5], 16.5 µM (active) in test [9] and 32.5 µM (inactive) in test [10]. In addition, the AC50 in [6] was 6.19 µM (active); in test [7], 40.4 µM (active); in test [8] it was 10.4 µM (active).
In the case of `COc1ccc2nc(O)c(CN(Cc3cccs3)S(=O)(=O)c3cccc4nsnc34)cc2c1`, the EC50 is > 150 µM (not active) in [11]; 25.6 µM (inconclusive) in test [12]; 1.62 µM (active) in [13]; 21.1 µM (active) in [16]; 14.5 µM (active) in test [17]. Also, the AC50 in test [14] is 4.12 µM (active); in test [15] it was 3.31 µM (active); in [18], 16.9 µM (active); in test [19], 38.4 µM (active).
For `Cc1cc(C)c2c(=O)n3c(nc2c1)C(CC(C)C)NC(=O)c1cc2ccccc2cc1-3` (stereo unspecified), the IC50 in test [3] was > 80 µM (inactive).
Same read-out and setting: the figure for `O=C(/C=C/c1ccc(Cl)cc1)N1CCN(c2ccccc2[N+](=O)[O-])CC1` is > 80 µM (inactive).
